Among the data in US10954214B2 (Janssen Pharmaceutica NV, priority 2016, dated 2021) are IC50 values, retold here.

Experiment [1] addresses full-length MALT1 protein (Strep-MALT1(1-824)-His) (Homo sapiens (Human), UniProt Q9UDY8). Description: MALT1 Biochemical Protease Assay (Ac-LRSR-AMC substrate). The following applies: 10 nM FL MALT1, 200 μM Ac-LRSR-AMC, 4 h at RT; read-out: MALT1_Biochemical activity (Ac-LRSR-amc) IC50. In a few lines:
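Fluorescence from AMC release off the quenched LRSR substrate was read after a 4 h reaction at RT. Values were normalised to no-enzyme and uninhibited controls and fitted for IC50 and Hill coefficient.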

In experiment [2] the test system is IL10 secretion by TMD8 ABC-DLBCL cells. The experiment can be described thus: Human IL10 Mesoscale assay (TMD-8). Particulars: Homo sapiens, TMD8; TMD-8 cells, 24 h. In kind it is cell-based. An outline of the steps: (§1)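 100,000 cells/well treated with compound in 9 twofold steps from 15 μM to 58.6 nM (0.3% DMSO) for 24 h at 37° C; supernatant cytokine measured by MSD electrochemiluminescence sandwich immunoassay. DMSO wells set maximum signal, BTK inhibitor RN486 (30 nM to 131 pM) set maximum inhibition.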

The subject of experiment [3] is OCI-Ly3 cells. Description: 4-day proliferation assay, OCI-Ly3. The class given is cell-based, human. Particulars: Homo sapiens, 96 h, 4 days incubation, CellTiterGLO, read-out: Anti-proliferation: OCI-LY-3 IC50. An outline of the steps: (§2)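 Each line was plated at 10,000 cells per well for linear growth, with no beta-mercaptoethanol during the assay. OCI-Ly3 cells were below passage 10.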
On the technique in general: ATP-based viability assays read luminescence as a measure of living cells.

For experiment [4], the system named is TMD8 cells. The experiment can be described thus: 4-day proliferation assay, TMD8. In kind it is cell-based. Particulars: Homo sapiens, 96 h, 4 days incubation, CellTiterGLO, read-out: Anti-proliferation: TMD-8 IC50. An outline of the steps: as §2
Experiment [5] concerns IL6 secretion by TMD8 ABC-DLBCL cells. Description: Human IL6 Mesoscale assay (TMD-8). In kind it is cell-based. Particulars: Homo sapiens, TMD8; TMD-8 cells, 24 h. An outline of the steps: as §1

A value given as a limit tells only on which side of the number the result lay.

Chain of full-length MALT1 protein (Strep-MALT1(1-824)-His) (Q9UDY8 whole entry): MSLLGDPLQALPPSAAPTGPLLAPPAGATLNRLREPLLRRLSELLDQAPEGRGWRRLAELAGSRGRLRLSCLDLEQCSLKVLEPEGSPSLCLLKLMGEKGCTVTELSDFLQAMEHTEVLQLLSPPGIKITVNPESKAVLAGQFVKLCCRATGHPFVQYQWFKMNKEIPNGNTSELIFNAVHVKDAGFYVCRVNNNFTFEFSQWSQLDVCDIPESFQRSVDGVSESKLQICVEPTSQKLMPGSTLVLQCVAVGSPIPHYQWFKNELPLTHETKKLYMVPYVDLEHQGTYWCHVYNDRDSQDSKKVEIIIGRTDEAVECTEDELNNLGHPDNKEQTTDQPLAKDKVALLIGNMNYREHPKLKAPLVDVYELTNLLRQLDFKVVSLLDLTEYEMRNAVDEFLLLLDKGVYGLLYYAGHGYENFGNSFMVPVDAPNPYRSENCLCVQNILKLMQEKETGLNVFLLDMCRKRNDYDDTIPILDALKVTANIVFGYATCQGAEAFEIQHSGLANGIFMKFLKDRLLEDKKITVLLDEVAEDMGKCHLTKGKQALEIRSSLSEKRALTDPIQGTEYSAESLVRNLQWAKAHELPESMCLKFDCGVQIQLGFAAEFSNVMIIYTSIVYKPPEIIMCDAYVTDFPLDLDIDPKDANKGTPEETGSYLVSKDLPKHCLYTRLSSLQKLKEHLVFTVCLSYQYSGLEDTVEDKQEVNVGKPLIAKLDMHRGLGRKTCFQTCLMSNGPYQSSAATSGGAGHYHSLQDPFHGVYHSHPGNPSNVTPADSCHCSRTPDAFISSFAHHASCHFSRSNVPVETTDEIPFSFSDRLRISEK

Regarding `N#Cc1cc(NC(=O)c2cnn(-c3nccc4ccoc34)c2C(F)(F)F)cnc1-n1nccn1` [Cpd 99, N-(5-cyano-6-(2H-1,2,3-triazol-2-yl)pyridin-3-yl)-1-(furo[2,3-c]pyridin-7-yl)-5-(trifluoromethyl)-1H-pyrazole-4-carboxamide], the IC50 in experiment [1] was 11 nM; in experiment [2], 47 nM; in experiment [3] it was 650 nM; in experiment [4], roughly 3240 nM; in experiment [5] it was 68 nM.

On to `N#Cc1cc(NC(=O)c2cnn(-c3nccc4ncccc34)c2C(F)(F)F)cnc1-n1nccn1` [Cpd 100, N-(5-cyano-6-(2H-1,2,3-triazol-2-yl)pyridin-3-yl)-1-(1,6-naphthyridin-5-yl)-5-(trifluoromethyl)-1H-pyrazole-4-carboxamide], for which the IC50 in experiment [1] was 37 nM; in experiment [2], 155 nM; in experiment [3], 1950 nM; in experiment [4], roughly 5250 nM; in experiment [5], 251 nM.

As to `COC(=O)c1cnn(-c2ncc(NC(=O)c3cnn(-c4cccc5ncccc45)c3C(F)(F)F)cc2Cl)n1` [Cpd 108, Methyl 2-(3-chloro-5-(1-(quinolin-5-yl)-5-(trifluoromethyl)-1H-pyrazole-4-carboxamido)pyridin-2-yl)-2H-1,2,3-triazole-4-carboxylate], the IC50 in experiment [1] was 23 nM; in experiment [2], greater than 302 nM; in experiment [3], 1120 nM; in experiment [4], 1660 nM; in experiment [5], greater than 302 nM.

In the case of `O=C(Nc1cnc(-n2nccn2)c(Cl)c1)c1cnn(-c2cccc3nnsc23)c1C(F)(F)F` [Cpd 120, 1-(benzo[d][1,2,3]thiadiazol-7-yl)-N-(5-chloro-6-(2H-1,2,3-triazol-2-yl)pyridin-3-yl)-5-(trifluoromethyl)-1H-pyrazole-4-carboxamide], the IC50 in experiment [1] was found to be 30 nM; in experiment [2], 85 nM; in experiment [3], 325 nM; in experiment [4], 1950 nM; in experiment [5] it was 102 nM.

In the case of `Cc1nc(-n2nccn2)c(Cl)cc1NC(=O)c1cnn(-c2cncc3c(F)cccc23)c1C(F)(F)F` [Cpd 123, N-(5-chloro-2-methyl-6-(2H-1,2,3-triazol-2-yl)pyridin-3-yl)-1-(8-fluoroisoquinolin-4-yl)-5-(trifluoromethyl)-1H-pyrazole-4-carboxamide], the IC50 in experiment [1] amounted to 13 nM; in experiment [2], 182 nM; in experiment [3], 395 nM; in experiment [4] it was 501 nM; in experiment [5], 389 nM.

For the compound `Cc1nc(-n2nccn2)c(C#N)cc1NC(=O)c1cnn(-c2cncc3c(F)cccc23)c1C(F)(F)F` [Cpd 124, N-(5-cyano-2-methyl-6-(2H-1,2,3-triazol-2-yl)pyridin-3-yl)-1-(8-fluoroisoquinolin-4-yl)-5-(trifluoromethyl)-1H-pyrazole-4-carboxamide], the IC50 in experiment [1] came to 20 nM; in experiment [2], 15 nM; in experiment [3] it was 593 nM; in experiment [4] it was 977 nM; in experiment [5] it was 21 nM.

Regarding `N#Cc1cc(NC(=O)c2cnn(-c3ccnc4sccc34)c2C(F)(F)F)cnc1-n1nccn1` [Cpd 126, N-(5-cyano-6-(2H-1,2,3-triazol-2-yl)pyridin-3-yl)-1-(thieno[2,3-b]pyridin-4-yl)-5-(trifluoromethyl)-1H-pyrazole-4-carboxamide], the IC50 in experiment [1] was 15 nM; in experiment [2], 43 nM; in experiment [3], 135 nM; in experiment [4], 794 nM; in experiment [5], 21 nM.

In the case of `[2H]c1ccc2c(-n3ncc(C(=O)Nc4cnc(-n5nccn5)c(C#N)c4)c3C(F)(F)F)cccc2n1` [Cpd 130, N-(5-cyano-6-(2H-1,2,3-triazol-2-yl)pyridin-3-yl)-1-(2-D-quinolin-5-yl)-5-(trifluoromethyl)-1H-pyrazole-4-carboxamide], the IC50 in experiment [1] turned out to be 17 nM; in experiment [2] it was 166 nM; in experiment [3] it was 417 nM; in experiment [4], 3470 nM; in experiment [5] it was 214 nM.

Take `[2H]c1ccc2c(-n3ncc(C(=O)Nc4cnc(-n5nccn5)c(Cl)c4)c3C(F)(F)F)cccc2n1` [Cpd 131, N-(5-chloro-6-(2H-1,2,3-triazol-2-yl)pyridin-3-yl)-1-(2-Dquinolin-5-yl)-5-(trifluoromethyl)-1H-pyrazole-4-carboxamide]: the IC50 in experiment [1] came to 17 nM; in experiment [2], 21 nM; in experiment [3], 265 nM; in experiment [4], 2630 nM; in experiment [5], 56 nM.

With `N#Cc1cc(NC(=O)c2cnn(-c3cccc4ncccc34)c2C(F)(F)F)ccc1-n1nccn1` [Cpd 133, N-(3-cyano-4-(2H-1,2,3-triazol-2-yl)phenyl)-1-(quinolin-5-yl)-5-(trifluoromethyl)-1H-pyrazole-4-carboxamide], the IC50 came to 19 nM in experiment [1]; 54 nM in experiment [2]; 273 nM in experiment [3]; 3310 nM in experiment [4]; 126 nM in experiment [5].

With `Nc1cnn(-c2ncc(NC(=O)c3cnn(-c4cccc5c(=O)[nH]ccc45)c3C(F)(F)F)cc2Cl)n1` [Cpd 134, N-(6-(4-amino-2H-1,2,3-triazol-2-yl)-5-chloropyridin-3-yl)-1-(1-oxo-1,2-dihydroisoquinolin-5-yl)-5-(trifluoromethyl)-1H-pyrazole-4-carboxamide], the IC50 in experiment [1] worked out at 20 nM; in experiment [2], 46 nM; in experiment [3], 1010 nM; in experiment [4], 20000 nM; in experiment [5], 58 nM.

Regarding `O=C(Nc1cnc(-n2ncc(CO)n2)c(Cl)c1)c1cnn(-c2cccc3ncccc23)c1C(F)(F)F` [Cpd 136, N-(5-chloro-6-(4-(hydroxymethyl)-2H-1,2,3-triazol-2-yl)pyridin-3-yl)-1-(quinolin-5-yl)-5-(trifluoromethyl)-1H-pyrazole-4-carboxamide], the IC50 in experiment [1] came to 21 nM; in experiment [2], 31 nM; in experiment [3], 414 nM; in experiment [4], 2290 nM; in experiment [5] it was 45 nM.

In the case of `N#Cc1cc(NC(=O)c2cnn(-c3ccnc4ccccc34)c2C(F)(F)F)cnc1-n1nccn1` [Cpd 138, N-(5-cyano-6-(2H-1,2,3-triazol-2-yl)pyridin-3-yl)-1-(quinolin-4-yl)-5-(trifluoromethyl)-1H-pyrazole-4-carboxamide], the IC50 was 23 nM in experiment [1]; 126 nM in experiment [2]; 447 nM in experiment [3]; 2510 nM in experiment [4]; 245 nM in experiment [5].

Consider `N#Cc1cc(NC(=O)c2cnn(-c3ncnn4cccc34)c2C(F)(F)F)cnc1-n1nccn1` [Cpd 140, N-(5-cyano-6-(2H-1,2,3-triazol-2-yl)pyridin-3-yl)-1-(pyrrolo[2,1-f][1,2,4]triazin-4-yl)-5-(trifluoromethyl)-1H-pyrazole-4-carboxamide], for which the IC50 in experiment [1] stood at 24 nM; in experiment [2] it was 28 nM; in experiment [3], 1170 nM; in experiment [4], 5370 nM; in experiment [5], 72 nM.

For the compound `O=C(Nc1cnc(-n2nccn2)c(Cl)c1)c1cnn(-c2nccn3nccc23)c1C(F)(F)F` [Cpd 141, N-(5-chloro-6-(2H-1,2,3-triazol-2-yl)pyridin-3-yl)-1-(pyrazolo[1,5-a]pyrazin-4-yl)-5-(trifluoromethyl)-1H-pyrazole-4-carboxamide], the IC50 turned out to be 25 nM in experiment [1]; 39 nM in experiment [2]; 505 nM in experiment [3]; 6030 nM in experiment [4]; 51 nM in experiment [5].

On to `N#Cc1cc(NC(=O)c2cnn(-c3ncnc4sccc34)c2C(F)(F)F)cnc1-n1nccn1` [Cpd 142, N-(5-cyano-6-(2H-1,2,3-triazol-2-yl)pyridin-3-yl)-1-(thieno[2,3-d]pyrimidin-4-yl)-5-(trifluoromethyl)-1H-pyrazole-4-carboxamide], for which the IC50 in experiment [1] came to 26 nM; in experiment [2], 17 nM; in experiment [3] it was 380 nM; in experiment [4], 832 nM; in experiment [5], 107 nM.

Turning to `N#Cc1cc(NC(=O)c2cnn(-c3nccc4ccsc34)c2C(F)(F)F)cnc1-n1nccn1` [Cpd 143, N-(5-cyano-6-(2H-1,2,3-triazol-2-yl)pyridin-3-yl)-1-(thieno[2,3-c]pyridin-7-yl)-5-(trifluoromethyl)-1H-pyrazole-4-carboxamide], the IC50 came out at 26 nM in experiment [1]; 56 nM in experiment [2]; 423 nM in experiment [3]; 9550 nM in experiment [4]; 98 nM in experiment [5].

As for `NC(=O)c1cnn(-c2ncc(NC(=O)c3cnn(-c4cccc5ncccc45)c3C(F)(F)F)cc2Cl)n1` [Cpd 144, 2-(3-chloro-5-(1-(quinolin-5-yl)-5-(trifluoromethyl)-1H-pyrazole-4-carboxamido)pyridin-2-yl)-2H-1,2,3-triazole-4-carboxamide], the IC50 is 28 nM in experiment [1]; 49 nM in experiment [2]; 482 nM in experiment [3]; 2570 nM in experiment [4]; 52 nM in experiment [5].
